Laboratory results as given in patent publication US9650361B2, “N-(pyridin-2-yl)pyrimidin-4-amine derivatives containing a sulfoximine group” (BAYER PHARAM AKTIENGESELLSCHAFT, priority 2012, dated 2017).
≈ marks a conversion by molar mass, not a printed value. Read-outs that look alike come from different tables or passages of the source.

Columns and labels:
NCI-H460 cells = assay: Proliferation assay, NCI-H460 (Method 3); format: cell-based, human; conditions: 4 days, crystal violet, read-out: Inhibition of NCI-H460 cell proliferation IC50
Procedure: (§1) Cultivated tumour cells (HeLa, human cervical tumour cells, ATCC CCL-2; NCI-H460, human non-small cell lung carcinoma cells, ATCC HTB-177; A2780, human ovarian carcinoma cells, ECACC #93112519; DU 145, hormone-independent human prostate carcinoma cells, ATCC HTB-81; HeLa-MaTu-ADR, multidrug-resistant human cervical carcinoma cells, EPO-GmbH Berlin; Caco-2, human colorectal carcinoma cells, ATCC HTB-37; B16F10, mouse melanoma cells, ATCC CRL-6475) were plated at a density of 5,000 cells/well (DU145, HeLa-MaTu-ADR), 3,000 cells/well (NCI-H460, HeLa), 2,500 cells/well (A2780), 1,500 cells/well (Caco-2), or 1,000 cells/well (B16F10) in a 96-well multititer plate in 200 μL of their respective growth medium supplemented 10% fetal calf serum. After 24 hours, the cells of one plate (zero-point plate) were stained with crystal violet (see below), while the medium of the other plates was replaced by fresh culture medium (200 μl), to which the test substances were added in various concentrations (0 μM, as well as in the range of 0.001-10 μM; the final concentration of the solvent dimethyl sulfoxide was 0.5%). The cells were incubated for 4 days in the presence of test substances. Cell proliferation was determined by staining the cells with crystal violet: the cells were fixed by adding 20 μl/measuring point of an 11% glutaric aldehyde solution for 15 minutes at room temperature. After three washing cycles of the fixed cells with water, the plates were dried at room temperature. The cells were stained by adding 100 μl/measuring point of a 0.1% crystal violet solution (pH 3.0). After three washing cycles of the stained cells with water, the plates were dried at room temperature. The dye was dissolved by adding 100 μl/measuring point of a 10% acetic acid solution. The extinction was determined by photometry at a wavelength of 595 nm. The change of cell number, in percent, was calculated by normalization of the measured values to the extinction values of the zero-point plate (=0%) and the extinction of the untreated (0 μm) cells (=100%). The IC50 values (inhibitory concentration at 50% of maximal effect) were determined by means of a 4 parameter fit.

B16F10 cells = assay: Proliferation assay, B16F10 (Method 3); format: cell-based, mouse; conditions: 4 days, crystal violet, read-out: Inhibition of B16F10 cell proliferation IC50
Procedure: as §1

[1] = Caco-2 permeation assay (Method 5); format: in vitro ADME; conditions: human, Caco-2, pH 7.2, 2 μM test compound; for Papp A→B at 2 h, 2 µM: read-out: Papp A-B (Mari); for Papp B→A at 2 h, 2 µM: read-out: Papp B-A (Mari); for efflux ratio at 2 h, 2 µM: Papp B-A / Papp A-B
Procedure: 5. Caco-2 Permeation Assay:
Caco-2 cells (purchased from DSMZ Braunschweig, Germany) were seeded at a density of 4.5×10^4 cells per well on 24 well insert plates, 0.4 μm pore size, and grown for 15 days in DMEM medium supplemented with 10% fetal bovine serum, 1% GlutaMAX (100×, GIBCO), 100 U/mL penicillin, 100 μg/mL streptomycin (GIBCO) and 1% non essential amino acids (100×). Cells were maintained at 37° C. in a humidified 5% CO2 atmosphere. Medium was changed every 2-3 day. Before running the permeation assay, the culture medium was replaced by a FCS-free hepes-carbonate transport buffer (pH 7.2). For assessment of monolayer integrity the transepithelial electrical resistance (TEER) was measured. Test compounds were predissolved in DMSO and added either to the apical or basolateral compartment in final concentration of 2 μM in transport buffer. Before and after 2 h incubation at 37° C. samples were taken from both compartments. Analysis of compound content was done after precipitation with methanol by LC/MS/MS analysis. Permeability (Papp) was calculated in the apical to basolateral (A→B) and basolateral to apical (B→A) directions. The apparent permeability was calculated using following equation: Papp=(Vr/Po)(1/S)(P2/t)
Where Vr is the volume of medium in the receiver chamber, Po is the measured peak area or height of the test drug in the donor chamber at t=o, S the surface area of the monolayer, P2 is the measured peak area of the test drug in the acceptor chamber after 2 h of incubation, and t is the incubation time. The efflux ratio basolateral (B) to apical (A) was calculated by dividing the Papp B-A by the Papp A-B. In addition the compound recovery was calculated. The following reference compounds were used for the classification of the permeability class: Antipyrine, Pyrazosin, Verapamil, Fluvastatin, Cimetidine, Ranitidine, Atenolol, Sulfasalazine.

[2] = Equilibrium shake flask solubility assay, thermodynamic solubility in citrate buffer pH 4 (Method 4b); format: physicochemical; conditions: aqueous buffer, thermodynamic from solid; citrate buffer pH 4, 24 h, room temperature; read-out: Solubility in Citrate buffer pH4
Procedure: 4b) Thermodynamic Solubility in Citrate Buffer pH 4
Thermodynamic solubility was determined by an equilibrium shake flask method [Literature: Edward H. Kerns and Li Di (2008) Solubility Methods in: Drug-like Properties: Concepts, Structure Design and Methods, p 276-286. Burlington, Mass.: Academic Press].
A saturated solution of the drug was prepared and the solution was mixed for 24 h to ensure that equilibrium has been reached. The solution was centrifuged to remove the insoluble fraction and the concentration of the compound in solution was determined using a standard calibration curve.
To prepare the sample, 1.5 mg solid compound was weighed in a 4 ml glass vial. 1 ml Citrate buffer pH 4 was added. The suspension was put on a stirrer and mixed for 24 hrs at room temperature. The solution was centrifuged afterwards. To prepare the sample for the standard calibration, 0.6 mg solid sample was dissolved in 19 ml acetonitrile/water 1:1. After sonification the solution was filled up with acetonitrile/water 1:1 to 20 ml.
Sample and standards were quantified by HPLC with UV-detection. For each sample two injection volumes (5 and 50 μl) in triplicates were made. Three injection volumes (5 μl, 10 μl and 20 μl) were made for the standard.
Citrate buffer pH 4 (MERCK Art. 109435; 1 L buffer consisting of 11,768 g citric acid,
4,480 g sodium hydroxide, 1,604 g hydrogen chloride)
Chromatographic conditions were as follows:
HPLC column: Xterra MS C18 2.5 μm 4.6×30 mm
Injection volume: Sample: 3×5 μl and 3×50 μl
• Standard: 5 μl, 10 μl, 20 μl Flow: 1.5 ml/min Mobile phase: acidic gradient: • A: Water/0.01% TFA • B: Acetonitrile/0.01% TFA • 0 min: 95% A 5% B • 0-3 min: 35% A 65% B, linear gradient • 3-5 min: 35% A 65% B, isocratic • 5-6 min: 95% A 5% B, isocratic UV detector: wavelength near the absorption maximum (between 200 and 400 nm)
The areas of sample- and standard injections as well as the calculation of the solubility value (in mg/l) were determined by using HPLC software (Waters Empower 2 FR).

IC50 (NCI-H460 cells; Homo sapiens, NCI-H460, 96 h) | IC50 (B16F10 cells; Mus musculus, B16-F10, 96 h) | Papp A→B at 2 h, 2 µM [1] | Papp B→A at 2 h, 2 µM [1] | efflux ratio at 2 h, 2 µM [1] | solubility at 24 h [2] | IC50 (NCI-H460 cells) | IC50 (B16F10 cells) | Structure (SMILES)
638 nM | 488 nM | 2.6 ×10⁻⁶ cm/s | 24.3 ×10⁻⁶ cm/s | 9.3 |  |  |  | COc1cc(F)ccc1-c1cc(Nc2cc(CS(C)(=N)=O)ccn2)ncn1 (racemic) [Example 1, (rac)-6-(4-Fluoro-2-methoxyphenyl)-N-{4-[(S-methylsulfonimidoyl)methyl]pyridin-2-yl}pyrimidin-4-amine]
135 nM | 100 nM | 4.5 ×10⁻⁶ cm/s | 20.6 ×10⁻⁶ cm/s | 4.58 | 11 µg/mL (≈ 24.2 µM) |  |  | COc1cc(F)ccc1-c1cc(Nc2cc(CS(C)(=N)=O)cc(C(F)(F)F)n2)ncn1 (racemic) [Example 10, (rac)-6-(4-Fluoro-2-methoxyphenyl)-N-{4-[(S-methylsulfonimidoyl)methyl]-6-(trifluoromethyl)pyridin-2-yl}pyrimidin-4-amine]
 |  |  |  |  |  | 193 nM | 205 nM | COc1cc(F)ccc1-c1cc(Nc2cc(CS(C)(=N)=O)cc(C)n2)ncn1 (single isomer, unassigned) [Example 9, 6-(4-Fluoro-2-methoxyphenyl)-N-{6-methyl-4-[(S-methylsulfonimidoyl)methyl]pyridin-2-yl}pyrimidin-4-amine]

Continued, compound first:

Structure (SMILES) | IC50 (NCI-H460 cells; Homo sapiens, NCI-H460, 96 h) | IC50 (B16F10 cells; Mus musculus, B16-F10, 96 h) | Papp A→B at 2 h, 2 µM [1] | Papp B→A at 2 h, 2 µM [1] | efflux ratio at 2 h, 2 µM [1] | solubility at 24 h [2] | IC50 (NCI-H460 cells) | IC50 (B16F10 cells)
COc1cc(F)ccc1-c1cc(Nc2cc(CS(C)(=N)=O)cc(Cl)n2)ncn1 (racemic) [Example 4, (rac)-N-{6-Chloro-4-[(S-methylsulfonimidoyl)methyl]pyridin-2-yl}-6-(4-fluoro-2-methoxyphenyl)pyrimidin-4-amine] | 372 nM | 215 nM |  |  |  | 15 µg/mL (≈ 35.6 µM) |  | 
COc1cc(F)ccc1-c1cc(Nc2cc(CS(C)(=N)=O)cc(C)n2)ncn1 (racemic) [Example 7, (rac)-6-(4-Fluoro-2-methoxyphenyl)-N-{6-methyl-4-[(S-methylsulfonimidoyl)methyl]pyridin-2-yl}pyrimidin-4-amine] | 375 nM | 216 nM | 3.9 ×10⁻⁶ cm/s | 28.9 ×10⁻⁶ cm/s | 7.49 | 157 µg/mL (≈ 391 µM) |  | 
COc1cc(F)ccc1-c1cc(Nc2cc(CS(C)(=N)=O)cc(Cl)n2)ncn1 (single isomer, unassigned) [Example 5, N-{6-Chloro-4-[(S-methylsulfonimidoyl)methyl]pyridin-2-yl}-6-(4-fluoro-2-methoxyphenyl)pyrimidin-4-amine] | 185 nM | 122 nM |  |  |  |  |  | 
COc1cc(F)ccc1-c1cc(Nc2cc(CS(C)(=N)=O)cc(Cl)n2)ncn1 (single isomer, unassigned) [Example 6, N-{6-Chloro-4-[(S-methylsulfonimidoyl)methyl]pyridin-2-yl}-6-(4-fluoro-2-methoxyphenyl)pyrimidin-4-amine] |  |  |  |  |  |  | 192 nM | 123 nM
COc1cc(F)ccc1-c1cc(Nc2cc(CS(C)(=N)=O)cc(C)n2)ncn1 (single isomer, unassigned) [Example 8, 6-(4-Fluoro-2-methoxyphenyl)-N-{6-methyl-4-[(S-methylsulfonimidoyl)methyl]pyridin-2-yl}pyrimidin-4-amine] | 319 nM | 284 nM |  |  |  |  |  | 
